# Measured values as given in patent US20170304002A1, “ELECTROMANIPULATION OF PROTEINS USING NANOSECOND PULSED ELECTRIC FIELDS” (Old Dominion University, priority 2014, published 2017).
# System: Jurkat A3 cells
# Assay: nsPEF-induced dissipation of mitochondria membrane potential (ΔΨm), TMRE flow cytometry
# Format: cell-based
# Method: Wildtype Jurkat T-lymphocytes (clone A3) were obtained from ATCC (Manassas, Va.) and cultured in RPMI 1640 medium (ATCC) including about 10% fetal bovine serum (FBS) (Atlanta Biologist). N1-S1 HCC cells were obtained from ATCC and cultured in Iscove's Modified Delbecco's Medium including FBS. Both cell lines were maintained in media including about 1% L-glutamine and about 1% penicillin and streptomycin. Cells were treated in cuvettes in cell culture media with nsPEFs using pulse generators, such as, for example as described in Transient features in nanosecond pulsed electric fields differentially modulate mitochondria and viability, PLoS One 7 (2012).
# Loss in ΔΨm was determined by staining cells with either 2 μM JC-1 (5′,6, 6′-tetrachloro-1,1′,3,3′-tetraethylbenzimidazole-carbocyanideiodine, Molecular Probes, Eugene, Oreg., USA), where JC-1 changes from red to green when ΔΨm decreases (data not shown) or with 200 […] TMRE (tetramethylrhodamine ethyl ester, Immunochemistry Technologies LLC, Bloomington, Minn.), where TMRE red emissions decrease when ΔΨm decreases. To determine effects of Ca^2+ on ΔΨm, cells were pre-incubated with or without 20 μM BAPTA-AM and/or 5 mM EGTA for about 30 min before nsPEF treatment. The ΔΨm was determined about 10 min after treatment with nsPEFs. The TMRE red fluorescence was determined (10,000 cells) on a Becton Dickinson FacsAria flow cytometer. Although data shown are with TMRE, near identical results were obtained with JC-1. […]
# Jurkat cells (A3 clone) were pre-incubated with TMRE (200 nM) for 20 min. […] Cell were then analyzed by flow cytometry 10 min after treatment for red (TMRE, ΔΨm) fluorescent and expressed as percent cells showing fluorescence (Y-axis) at each electric field strength (X-axis). In the presence of 3 mM Ca^2+ (absence of EGTA) there was an electric field-dependent decrease in cells expressing a high ΔΨm as indicated by decreases in TMRE fluorescence. […] Statistical significance was determined by the paired Student's t-test (p<0.05; n=3). […]
Compound,"chelation of Ca2+ influx from the extracellular environment by BAPTA-AM alone (BAPTA-AM 20 μM alone, data not shown)","effect on nsPEF-induced loss of ΔΨm (percent cells showing TMRE fluorescence) (30 min pre-incubation, EGTA 5 mM, BAPTA-AM 20 μM, ten 60 ns pulses, all electric fields up to 60 kV/cm, 10 min after treatment)","block of nsPEF-induced loss of ΔΨm at high electric field (electric field ≧40 kV/cm, EGTA 5 mM, BAPTA-AM 20 μM, ten 60 ns pulses)"
CC(=O)OCOC(=O)CN(CC(=O)OCOC(C)=O)c1ccccc1OCCOc1ccccc1N(CC(=O)OCOC(C)=O)CC(=O)OCOC(C)=O [BAPTA-AM],not sufficient to chelate influxes of Ca^2+ from the extracellular environment,–,–
O=C(O)CN(CCOCCOCCN(CC(=O)O)CC(=O)O)CC(=O)O [EGTA],–,prevented losses in ΔΨm,neither EGTA nor EGTA/BAPTA completely blocked loss of ΔΨm
